IC50 data for ten compounds are collected here from patent EP4553080A1, “NUCLEOSIDE DERIVATIVES AS ANTIVIRAL AGENTS AGAINST CORONAVIRUSES” (Ustav Organicke Chemie a Biochemie AV CR, v.v.i., priority 2023, dated 2025).

The experiment deals with nsp14 methyltransferase from SARS-CoV-2 (Severe acute respiratory syndrome coronavirus 2, UniProt P0DTD1). The experiment in a line: Nsp14 MTase activity inhibition in vitro (EchoMS assay). Type of experiment: biochemical. To be noted: recombinant nsp14 protein expressed in E. coli; dose-response curve.
The term IC50 denotes the concentration at which inhibition is half-maximal. For the compound `Cc1ccc(-c2onc(C)c2CSC[C@H]2O[C@@H](n3ccc4c(N)ncnc43)[C@H](O)[C@@H]2O)cc1C` [Compound 95c, (2R,3R,4S,5S)-2-(4-Amino-7H-pyrrolo[2,3-d]pyrimidin-7-yl)-5-((((5-(3,4-dimethylphenyl)-3-methylisoxazol-4-yl)methyl)thio)methyl)tetrahydrofuran-3,4-diol], the half-maximal inhibitory concentration (IC50) fell in the range of 10 to 30 nM.

As to `Cc1noc(-c2ccccc2)c1CSC[C@H]1O[C@@H](n2cc(C#N)c3c(N)ncnc32)[C@H](O)[C@@H]1O` [Compound 138b, 4-Amino-7-((2R,3R,4S,5S)-3,4-dihydroxy-5-((((3-methyl-5-phenylisoxazol-4-yl)methyl)thio)methyl)tetrahydrofuran-2-yl)-7H-pyrrolo[2,3-d]pyrimidine-5-carbonitrile], the IC50 fell in the range of 30 to 100 nM.

With `Cc1scc(-c2ccccc2)c1CSC[C@H]1O[C@@H](n2ccc3c(N)ncnc32)[C@H](O)[C@@H]1O` [Compound 52c, (2R,3R,4S,5S)-2-(4-Amino-7H-pyrrolo[2,3-d]pyrimidin-7-yl)-5-((((2-methyl-4-phenylthiophen-3-yl)methyl)thio)methyl)tetrahydrofuran-3,4-diol], the IC50 was in the range of 500 to 2000 nM.

Regarding `Nc1ncnc2c1ccn2[C@@H]1O[C@H](CSCc2csnc2-c2ccccc2)[C@@H](O)[C@H]1O` [Compound 105c, (2R,3R,4S,5S)-2-(4-Amino-7H-pyrrolo[2,3-d]pyrimidin-7-yl)-5-((((3-phenylisothiazol-4-yl)methyl)thio)methyl)tetrahydrofuran-3,4-diol], the IC50 fell in the range of 500 to 2000 nM.

`Cn1c(-c2ccccc2)nc(-c2ccccc2)c1CSC[C@H]1O[C@@H](n2ccc3c(N)ncnc32)[C@H](O)[C@@H]1O` [Compound 120c, (2R,3R,4S,5S)-2-(4-Amino-7H-pyrrolo[2,3-d]pyrimidin-7-yl)-5-((((1-methyl-2,4-diphenyl-1H-imidazol-5-yl)methyl)thio)methyl)tetrahydrofuran-3,4-diol]: the IC50 lay in the range of 30 to 100 nM.

For `Cc1noc(-c2ccc(N)cc2)c1CSC[C@H]1O[C@@H](n2cc(C#Cc3cncnc3)c3c(N)ncnc32)[C@H](O)[C@@H]1O` [Compound 241c, (2R,3R,4S,5S)-2-(4-Amino-5-(pyrimidin-5-ylethynyl)-7H-pyrrolo[2,3-d]pyrimidin-7-yl)-5-((((5-(4-aminophenyl)-3-methylisoxazol-4-yl)methyl)thio)methyl)tetrahydrofuran-3,4-diol], the IC50 lay in the range of 10 to 30 nM.

As for `Cc1snc(-c2ccccc2)c1CSC[C@H]1O[C@@H](n2ccc3c(N)ncnc32)[C@H](O)[C@@H]1O` [Compound 59c, (2R,3R,4S,5S)-2-(4-Amino-7H-pyrrolo[2,3-d]pyrimidin-7-yl)-5-((((5-methyl-3-phenylisothiazol-4-yl)methyl)thio)methyl)tetrahydrofuran-3,4-diol], the IC50 was in the range of 30 to 100 nM.

Take `Cc1noc(-c2ccccc2)c1CSC[C@H]1O[C@@H](n2cc(Cc3ccc4ccccc4c3)c3c(N)ncnc32)[C@H](O)[C@@H]1O` [Compound 186b, (2R,3R,4S,5S)-2-(4-Amino-5-(naphthalen-2-ylmethyl)-7H-pyrrolo[2,3-d]pyrimidin-7-yl)-5-((((3-methyl-5-phenylisoxazol-4-yl)methyl)thio)methyl)tetrahydrofuran-3,4-diol]: the IC50 lay in the range of 500 to 2000 nM.

For `Cc1noc(-c2ccccc2)c1CSC[C@H]1O[C@@H](n2cc(CCCC#N)c3c(N)ncnc32)[C@H](O)[C@@H]1O` [Compound 137b, 4-(4-Amino-7-((2R,3R,4S,5S)-3,4-dihydroxy-5-((((3-methyl-5-phenylisoxazol-4-yl)methyl)thio)methyl)tetrahydrofuran-2-yl)-7H-pyrrolo[2,3-d]pyrimidin-5-yl)butanenitrile], the IC50 was in the range of 10 to 30 nM.

As for `CCCCCc1cn([C@@H]2O[C@H](CSCc3c(C)noc3-c3ccccc3)[C@@H](O)[C@H]2O)c2ncnc(N)c12` [Compound 132b, (2R,3R,4S,5S)-2-(4-Amino-5-pentyl-7H-pyrrolo[2,3-d]pyrimidin-7-yl)-5-((((3-methyl-5-phenylisoxazol-4-yl)methyl)thio)methyl)tetrahydrofuran-3,4-diol], the IC50 lay in the range of 500 to 2000 nM.
